Literature values, collected in patent publication US8895557B2, “Pharmaceutical formulations of ecteinascidin compounds” (Pharma Mar, S.A., Sociedad Unipersonal, priority 2004, dated 2014).

Legend:
[1] = test system: sarcoma and breast and ovarian carcinoma; details: phase I, patients with sarcoma and breast and ovarian carcinoma
[2] = test system: human tumour xenografts, including melanoma and ovarian and breast carcinoma; details: human tumour xenografts in athymic mice
[3] = mannitol/phosphate lyophilised product reconstituted with 5 ml Water for Injection, ambient temperature

## COc1cc2c(cc1O)CCN[C@]21CS[C@@H]2c3c(OC(C)=O)c(C)c4c(c3[C@H](COC1=O)N1C2C2c3c(cc(C)c(OC)c3O)C[C@@H]([C@@H]1O)N2C)OCO4 (stereo partly shown) [ET-743, Ecteinascidin 743]
[1]
  clinical responses: promising responses were observed
other
  aqueous solubility: limited aqueous solubility
[2]
  antineoplastic activity: potent antineoplastic activity
[3]
  time for which the reconstituted solution is stable: up to 24 h
